These are literature values, as cited in patent US7947458B1, “Placental human neurokinin B precursor” (Perinatal Diagnostics Limited, priority 1999, dated 2011).

One data set deals with NK1 receptor (Homo sapiens, UniProt P25103).
The next data set deals with T1, NK3 receptor (Homo sapiens, UniProt P29371).
T1 sequence (P29371 1-465): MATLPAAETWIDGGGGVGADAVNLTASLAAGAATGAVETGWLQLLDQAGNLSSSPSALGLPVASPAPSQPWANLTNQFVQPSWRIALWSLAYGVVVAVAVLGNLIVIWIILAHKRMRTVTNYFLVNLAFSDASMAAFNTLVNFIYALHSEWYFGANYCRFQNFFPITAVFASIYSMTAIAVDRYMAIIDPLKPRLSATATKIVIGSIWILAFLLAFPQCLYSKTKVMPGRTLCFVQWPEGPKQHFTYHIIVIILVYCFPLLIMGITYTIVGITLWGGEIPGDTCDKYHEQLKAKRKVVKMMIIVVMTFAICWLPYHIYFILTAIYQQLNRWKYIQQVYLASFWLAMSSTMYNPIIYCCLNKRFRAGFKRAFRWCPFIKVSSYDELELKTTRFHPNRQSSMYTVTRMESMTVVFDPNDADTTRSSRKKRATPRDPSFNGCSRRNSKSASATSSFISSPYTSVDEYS

For data set [1] the following is noted: intravenous injections, guinea pigs.
The conditions of data set [2]: intravenous infusion, rats.
In the next data set the target is T2, NK2 receptors (Homo sapiens, UniProt P21452).
T2 sequence (P21452 1-398): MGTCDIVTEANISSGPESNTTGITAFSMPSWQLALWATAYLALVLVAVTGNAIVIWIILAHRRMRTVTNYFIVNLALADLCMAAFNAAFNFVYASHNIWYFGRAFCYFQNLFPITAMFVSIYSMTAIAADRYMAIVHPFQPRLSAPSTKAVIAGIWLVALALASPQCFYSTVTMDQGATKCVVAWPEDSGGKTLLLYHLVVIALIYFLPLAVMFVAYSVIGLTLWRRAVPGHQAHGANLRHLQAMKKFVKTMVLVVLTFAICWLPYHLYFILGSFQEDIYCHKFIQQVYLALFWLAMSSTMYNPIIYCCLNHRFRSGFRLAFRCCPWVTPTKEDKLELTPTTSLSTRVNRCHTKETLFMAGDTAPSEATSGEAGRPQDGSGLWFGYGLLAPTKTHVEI

The conditions of data set [3]: dog, in vivo.

Where two headings read alike, the source gives them in different places. Ends that are not written are not given here.

NK1 receptor, sequence (P25103 whole entry, species assumed): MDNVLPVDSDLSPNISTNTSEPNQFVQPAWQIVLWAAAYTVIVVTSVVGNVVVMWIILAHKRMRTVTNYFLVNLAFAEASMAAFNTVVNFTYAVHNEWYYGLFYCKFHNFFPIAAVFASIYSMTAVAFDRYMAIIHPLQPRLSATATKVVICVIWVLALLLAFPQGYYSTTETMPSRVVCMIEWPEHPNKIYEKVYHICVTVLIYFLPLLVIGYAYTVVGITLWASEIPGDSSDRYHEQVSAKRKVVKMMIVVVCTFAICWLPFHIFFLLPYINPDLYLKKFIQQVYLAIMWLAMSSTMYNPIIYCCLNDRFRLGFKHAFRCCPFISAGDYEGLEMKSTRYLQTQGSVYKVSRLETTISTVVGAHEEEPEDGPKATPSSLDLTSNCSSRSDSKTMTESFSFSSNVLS

As for `CN(Cc1ccccc1)C(=O)[C@H](Cc1ccc2ccccc2c1)NC(=O)[C@@H]1C[C@@H](O)CN1C(=O)c1cn(C)c2ccccc12` [FK 888], the “affinity for the NK1 receptor” value on NK1 receptor is given as “high affinity”.

Regarding neurokinin B [NKB], in the data set on mesenteric vascular bed, the “vasoconstriction, potency rank among neurokinins” value was “most potent neurokinin to cause vasoconstriction”. Also, the “contraction, potency rank among neurokinins” value in the data set with hepatic portal vein is listed as “most potent neurokinin”. Moreover, the “potency rank among tachykinins at the NK3 receptor” value with NK3 receptor is recorded as “most potent member of the family”. Further, the “effect on blood pressure” value in data set [1] is “dose related hypertension”; in data set [2] it was “increase in blood pressure”.

Take `CC(=O)NC1(c2ccccc2)CCN(CC[C@H](CN(C)C(=O)c2ccccc2)c2ccc(Cl)c(Cl)c2)CC1` [SR 48968]: on NK2 receptors, the “affinity and selectivity for NK2 receptors” value is “high affinity and selectivity”.

In the case of “neurokinin A (HKTDSFVGLM-NH2; ends and bridges not checked; UniProt P20366 98-107, looked up) [substance K, tachykinin designated substance K or neurokinin A]”, the “effect on heart rate” value in data set [3] is recorded as “slow down the heart rate”.

With “substance P (RPKPQQFFGLM-NH2; ends and bridges not checked; UniProt P20366 58-68, looked up)”, the “effect on heart rate” value in data set [3] is “slow down the heart rate”.
